In US12570618B2, “Compound, production method therefor, and pharmaceutical composition” (TOKYO UNIVERSITY OF SCIENCE FOUNDATION, priority 2021, dated 2026):

What was measured:
[1] = test system: MCF-7 (Breast adenocarcinoma cell line); assay: cell proliferation inhibitory activity, WST-8 (Test Example 2); format: cell-based; conditions: Homo sapiens, MCF7, 48 h, MCF-7, 2 days with compound
Source text: (§1) Compounds RS1 to RS7 obtained in Synthesis Examples 1 to 7, and M-COPA synthesized in the same manner as in Synthesis Example 1 in Patent Document 1 were examined for cell proliferation inhibitory activity against human cultured cancer cells. The cancer cells used were eight human cancer cell lines (one skin cancer cell line, one ovarian cancer cell line, one prostate cancer cell line, two lung adenocarcinoma cell lines, one colorectal cancer cell line, two breast adenocarcinoma cell lines). The cancer cells of each type were seeded on a 96-well plate and cultured for 2 days, and cultured for 2 days with addition of serially diluted products of the compounds, and the cell proliferation was then measured by colorimetry with a water-soluble tetrazolium salt (WST-8). Thereafter, 50% cell proliferation inhibitory concentrations (GI50) were calculated from the cell proliferation curves.

[2] = test system: H1650 (Lung adenocarcinoma cell line); assay: as above; format: cell-based; conditions: Homo sapiens, NCI-H1650, 48 h; H1650, 2 days with compound, WST-8, Table 2
Source text: as §1

[3] = test system: Hs578t (Breast adenocarcinoma cell line); assay: as above; format: cell-based; conditions: Homo sapiens, Hs-578T, 48 h, 2 days with compound
Source text: as §1

[4] = test system: DU-145 (Prostate cancer cell line); assay: as above; format: cell-based; conditions: Homo sapiens, 48 h, DU-145, 2 days with compound
Source text: as §1

[5] = test system: DLD-1 (Colorectal cancer cell line); assay: as above; format: cell-based; conditions: Homo sapiens, 48 h, DLD-1, 2 days with compound
Source text: as §1

[6] = test system: H2228 (Lung adenocarcinoma cell line); assay: as above; format: cell-based; conditions: Homo sapiens, NCI-H2228, 48 h; H2228, 2 days with compound, WST-8, Table 2
Source text: as §1

[7] = test system: Hs925t (Skin cancer cell line); assay: as above; format: cell-based; conditions: Homo sapiens, 48 h, 2 days with compound
Source text: as §1

[8] = test system: SK-OV3 (Ovarian cancer cell line); assay: as above; format: cell-based; conditions: Homo sapiens, SK-OV-3, 48 h, SK-OV3, 2 days with compound
Source text: as §1

[9] = test system: GIST-T1 cells; assay: cell proliferation inhibitory activity, ATP production (Test Example 1); format: cell-based, human
Source text: (§2) Compounds RS1, RS2, and RS5 obtained in Synthesis Examples 1, 2, and 5, and M-COPA synthesized in the same manner as in Synthesis Example 1 in Patent Document 1 were examined for cell proliferation inhibitory activity against human cultured cancer cells with KIT tyrosine kinase mutation. The human cultured cancer cells used were GIST-T1 cells (KIT^Δ560-578. imatinib-sensitive) and GIST-R9 cells (KIV^Δ560-578/D820V, imatinib-resistant) as gastrointestinal stromal tumor cell lines, and HMC-1.2 cells (KIT^V560G/D816V, imatinib-resistant) as a mast cell leukemia cell line. The cancer cells of each type were seeded on a 96-well plate and cultured overnight, and cultured for 2 days with addition of serially diluted products of the compounds, and the cell proliferation was then measured by quantifying the ATP production (n=3). FIG. 1 to FIG. 3 show the cell proliferation curves for the GIST-T1 cells, GIST-R9 cells, and HMC-1.2 cells.

[10] = test system: GIST-R9 cells; assay: as above; format: cell-based, human
Source text: as §2

[11] = test system: HMC-1.2 cells; assay: as above; format: cell-based, human
Source text: as §2

[12] = test system: H226 (Lung squamous cell carcinoma cell line); assay: cell proliferation inhibitory activity, WST-8 (Test Example 3); format: cell-based; conditions: Homo sapiens, NCI-H226, 48 h; H226, 2 days with compound, WST-8, Table 3
Procedure: (§3) Compounds RS8 to RS10 obtained in Synthesis Examples 8 to 10 were examined for cell proliferation inhibitory activity against human cultured cancer cells. The cancer cells used were two human lung adenocarcinoma cell lines and one human lung squamous cell carcinoma cell line. The cancer cells of each type were seeded on a 96-well plate and cultured for 2 days, and cultured for 2 days with addition of serially diluted products of the compounds, and the cell proliferation was then measured by colorimetry with a water-soluble tetrazolium salt (WST-8). Thereafter, 50% cell proliferation inhibitory concentrations (GI50) were calculated from the cell proliferation curves.

[13] = test system: H1650 (Lung adenocarcinoma cell line); assay: as above; format: cell-based; conditions: Homo sapiens, NCI-H1650, 48 h; H1650, 2 days with compound, WST-8, Table 3
Procedure: as §3

[14] = test system: H2228 (Lung adenocarcinoma cell line); assay: as above; format: cell-based; conditions: Homo sapiens, NCI-H2228, 48 h; H2228, 2 days with compound, WST-8, Table 3
Procedure: as §3

Structure (SMILES)	GI50 [1] [nM]	GI50 [2] [nM]	GI50 [3] [nM]	GI50 [4] [nM]	GI50 [5] [nM]	GI50 [6] [nM]	GI50 [7] [nM]	GI50 [8] [nM]	inhibition of cell proliferation (in words) ([9]; GIST-T1 cells, FIG. 1)	IC50 ([9]; Homo sapiens, GISTT1, 48 h, GIST-T1 cells (KIT^Δ560-578, imatinib-sensitive), cultured 2 days with compound, ATP production, n=3) [nM]	inhibition of cell proliferation (in words) ([10]; GIST-R9 cells, FIG. 2)	IC50 ([10]; Homo sapiens, 48 h, GIST-R9 cells (KIV^Δ560-578/D820V, imatinib-resistant), cultured 2 days with compound, ATP production, n=3) [nM]	inhibition of cell proliferation (in words) ([11]; HMC-1.2 cells, FIG. 3)	IC50 ([11]; Homo sapiens, 48 h, HMC-1.2 cells (KIT^V560G/D816V, imatinib-resistant), cultured 2 days with compound, ATP production, n=3) [nM]	GI50 [12] [nM]	GI50 [13] [nM]	GI50 [14] [nM]
C[C@@H]1[C@@H](O)[C@H](C)C[C@@H]2C=C[C@H](C)[C@H](/C=C/C=C(\Br)C(=O)NCc3cccnc3)[C@@H]12 [RS5, (2Z,4E)-2-Bromo-5-((1′S,2′S,4′aR,6′R,7′S,8′S,8′aS)-7′-hydroxy-2′,6′,8′-trimethyl-1′,2′,4′a,5′,6′,7′,8′,8′a-octahydronaphthalen-1′-yl)-N-(pyridin-3″-ylmethyl)penta-2,4-dienamide]	80	50	30	10	0.3	30	0.1	1	in a concentration-dependent manner	169	in a concentration-dependent manner	292	in a concentration-dependent manner	42			
C[C@H]1[C@@H]2[C@@H](/C=C/C=C(\Br)C(=O)NCc3cncs3)[C@@H](C)C=C[C@H]2CC[C@@H]1O [RS6, (2Z,4E)-2-Bromo-5-((1′S,2′S,4′aR,7′S,8′S,8′aS)-7′-hydroxy-2′,8′-dimethyl-1′,2′,4′a,5′,6′,7′,8′,8′a-octahydronaphthalen-1′-yl)-N-(thiazol-5″-ylmethyl)penta-2,4-dienamide]	100	100	30	50	40	100	3	5									
C[C@H]1[C@@H]2[C@@H](/C=C/C=C(\Br)C(=O)NCc3cccnc3)[C@@H](C)C=C[C@H]2CC[C@@H]1O [RS7, (2Z,4E)-2-Bromo-5-((1′S,2′S,4′aR,7′S,8′S,8′aS)-7′-hydroxy-2′,8′-dimethyl-1′,2′,4′a,5′,6′,7′,8′,8′a-octahydronaphthalen-1′-yl)-N-(pyridin-3″-ylmethyl)penta-2,4-dienamide]	1000	100	10	300	30	1000	30	50									
C[C@@H]1[C@@H](O)[C@H](C)C[C@@H]2C=C[C@H](C)[C@H](/C=C/C=C(\Br)C(=O)NCc3ccccn3)[C@@H]12 [RS8, (2Z,4E)-2-Bromo-5-((1′S,2′S,4′aR,6′R,7′S,8′S,8′aS)-7′-hydroxy-2′,6′,8′-trimethyl-1′,2′,4′a,5′,6′,7′,8′,8′a-octahydronaphthalen-1′-yl)-N-(pyridin-2″-ylmethyl)penta-2,4-dienamide]															40	300	300
C[C@@H]1[C@@H](O)[C@H](C)C[C@@H]2C=C[C@H](C)[C@H](/C=C/C=C(\Br)C(=O)OCc3cccnc3)[C@@H]12 [RS9, Pyridin-3″-ylmethyl (2Z,4E)-2-bromo-5-((1′S,2′S,4′aR,6′R,7′S,8′S,8′aS)7′-hydroxy-2′,6′,8′-trimethyl-1′,2′,4′a,5′,6′,7′,8′,8′a-octahydronaphthalen-1′-yl)penta-2,4-dienoate]															40	200	400
